Data from patent US4816560A, “Partially retro-inverted tuftsin analogues, method for the preparation thereof and pharmaceutical compositions containing them” (priority 1986, dated 1989).

System: peritoneal M.phi. from normal C3H/HeN mice
Assay: macrophage (M.phi.) phagocytic stimulation assay (ingestion of killed yeast cells, Zymosan)
Format: cell-based
Source text: The compounds of formula I, including the pharmaceutically acceptable esters, amides and salts, are active as immunostimulating agents. […] This assay, carried out in comparison with tuftsin, has been performed according to a modification of the method described by Bar-Shavit et al. in J.Cell.Physiol., 100, p.55 (1979). More particularly, peritoneal M.phi. from normal C3H/HeN mice are harvested by washing of the peritoneal cavity and purified by adherence as described in J.Immunol., 132, p.1987 (1984). Monolayers of 1×10^6 adherent peritoneal cells (95-98% of the monocyte-M.phi. series as judged by morphology and latex phagocytosis) are cultured for 20 h at 37° C. in RPMI-1640 medium supplemented with 50 μg/ml gentamycin, 25 mM HEPES buffer, 2 mM L-glutamine and 10% heat-inactivated fetal bovine serum (FBS). At the end of the incubation, M.phi. are washed and then exposed for 15 minutes at 37° C. to 1.3 ml/plate of culture medium either alone (blank) or containing tuftsin or a compound of the invention at different concentrations. A 1.5×10^8 cells/ml suspension of killed yeast cells (Zymosan)(0.2 ml) is then added to the plates. M.phi. are incubated for 60 minutes at 37° C., then washed, fixed (2% glutaraldehyde in PBS, 30 minutes, 4° C.) and stained. The percentage of phagocyting M.phi. and the number of ingested Zymosan cells is measured with an optical microscope equipped with a 100x immersion objective. In a representative experiment aimed at comparing the activity of tuftsin with that of the corresponding retro-inverso analogue of example 1, it has been observed that all M.phi. were capable of phagocyting zymosan in the above described conditions.
As the poor therapeutical applicability of tuftsin is mainly due to its low stability and to the consequent rapid loss of biological activity, the phagocytosis assay has been repeated comparing the activity of tuftsin and its retro-inverso analogue of example 1, stored for 14 days in solution at 4° C. […] At the concentration of 10^-6 M in fact the compound of Example 1 gave a number of ingested zymosan cells per 100 phagocyting macrophages of 1.8×10^3 (with an immunopotentiating effect corresponding therefore to 136% of the control).

[1] = peptide stored for 14 days in solution at 4° C., concentration 10^-6 M

{(2RS)-2-[N-(1-amino-2-hydroxy-propyl)carbamyl]-6-amino}-hexanoyl-L-prolyl- L-arginine [Example 1]
number of ingested yeast cells (in words) (fresh peptide, linearly dependent on peptide concentration): significantly increased
ingested zymosan cells, % of the control (peptide concentration 3×10^-7 M): 170 % of the control
ingested zymosan cells per 100 macrophages (peptide concentration 3×10^-7 M, 15 min exposure, then 60 min with Zymosan at 37° C.): 2.2×10^3 ingested zymosan cells per 100 macrophages
ingested zymosan cells per 100 phagocyting macrophages (peptide concentration 10^-6 M): 2.44×10^3 ingested zymosan cells per 100 phagocyting macrophages
ingested zymosan cells, % of the control (peptide concentration 10^-6 M): 188 % of the control
phagocytosis stimulation (in words) (peptide stored for 14 days in solution at 4° C.): still significant even if less than above
immunopotentiating effect, % of the control [1]: 136 % of the control
ingested zymosan cells per 100 phagocyting macrophages [1]: 1.8×10^3 ingested zymosan cells per 100 phagocyting macrophages
